One assay concerns the target T1, αLβ2 (LFA-1) (Homo sapiens, UniProt P05107+P20701).
T1 construct: the cells expressed the appropriate integrin receptor either endogenously (Jurkat/α4β1, K562/α5β1, Jurkat (a4-)/αLβ2, HSB/αLβ2); endogenous in cells; host or cells: Jurkat (α4-) or HSB
The assay is described as follows: Static cell adhesion assay, αLβ2-mediated adhesion to ICAM-1. In kind it is cell-based. Particulars: Jurkat (a4-) or HSB cells on sub-optimal ICAM-1 coating; PBS, 1 mM MgCl2, 50% FBS; read-out: Activity (EC50) in enhancing adhesion mediated by αLβ2 (LFA-1). Here is the method: (§1) For all assays described, C4 was dissolved in DMSO to make a 1 mM stock solution, and dilutions were made in assay buffer or media to yield the desired final working concentrations in 1% DMSO (vehicle). Human VCAM-1, MAdCAM-1 Fc chimera, ICAM-1, and SDF-1α were purchased from R&D Systems (Minneapolis, Minn.). Human serum fibronectin was purchased from Sigma-Aldrich (St. Louis, Mo.). The cell lines NK-92, Jurkat, K562, and HSB were obtained from American Type Culture Collection (Manassas, Va.) and were maintained in recommended culture media. The mutant Jurkat cell line not expressing α4 integrin (Jurkat [a4-]) was a gift from Dr. David Rose, University of California San Diego, La Jolla, Calif.
(§2) Ligands (VCAM-1, MAdCAM-1, fibronectin, or ICAM-1) in 50 μL of 50 mM Tris-HCl (pH 7.4), 150 mM NaCl, (TBS) were added to wells of a 96-well plate and allowed to coat overnight at 4° C. In order to maximize the window to evaluate agonist activity, a sub-optimal coating concentration of ligand was used. This ligand concentration corresponded approximately to that which would yield ≤5% adhesion as determined by dose-response curves of ligand binding to the appropriate cell type. All assays were performed as previously described. Briefly, 2×10^6 cells were labeled for 30 minutes with calcein-AM (Molecular Probes), washed, resuspended in binding buffer, and added to ligand-coated plates (2×10^5 cells/well) that had been blocked with 2% BSA. The binding buffer was PBS with 1 mM MgCl2 and 50% FBS (VCAM-1 and ICAM-1 assays) or TBS with 1 mM MnCl2 and 50% FBS (MAdCAM-1 and fibronectin assays). After a 30-minute incubation at 37° C., the plates were washed 3 times with the respective binding buffer (except without the serum), the adherent cells were lysed, and fluorescence was measured on a Tecan Safire^2 plate reader. Standard curves were run for each assay to convert fluorescence units to cell number. For each assay, the cells expressed the appropriate integrin receptor either endogenously (Jurkat/α4β1, K562/α5β1, Jurkat (a4-)/αLβ2, HSB/αLβ2) or in recombinant form (K562/α4β7). Generation of the recombinant K562 cell line has been described.

The next assay addresses T2, α4β1 (VLA-4) (Homo sapiens, UniProt P05556+P13612).
T2 construct: the cells expressed the appropriate integrin receptor either endogenously (Jurkat/α4β1, K562/α5β1, Jurkat (a4-)/αLβ2, HSB/αLβ2); host or cells: Jurkat
The assay is described as follows: Static cell adhesion assay, α4β1-mediated adhesion to VCAM-1. It counts as cell-based. Particulars: Jurkat cells on sub-optimal VCAM-1 coating; PBS, 1 mM MgCl2, 50% FBS; read-out: Activity (EC50) in enhancing adhesion mediated by α4β1 (VLA-4). Here is the method: as §1, §2

Another assay relates to Jurkat cells. Kind of assay: SDF-1α mediated migration assay across VCAM-1 coated membranes. It counts as cell-based. Particulars: 4-hour incubation; *p<0.05 (FIG. 3A&B). Here is the method:
(§3) FIGS. 3A&B depicts activity of C4 in enhancing SDF-1α mediated migration of Jurkat T cell, an exemplary activated T-cell, across membranes coated with either VCAM-1 or ICAM-1 (*p<0.05).
(§4) Migration assays were performed in […] pore size Transwells (24 well, Costar, Cambridge, Mass.). The upper chambers were pre-coated with […] VCAM-1 or 1 μg/mL ICAM-1 in […] TBS overnight at 4° C. and were then blocked with 2% BSA for 1 hour at room temperature. After washing with migration medium (RPMI-1640 supplemented with 1% FBS, 100 units/mL penicillin and 100 μg/mL streptomycin), upper chambers were loaded with 2×10^5 cells Jurkat cells (VCAM-1 assays) or Jurkat (a4-) cells (ICAM-1 assays) in 160 μL of migration medium. Lower chambers contained 600 μL of migration medium supplemented with 5 µg/mL (VCAM-1 assays) or 1 μg/mL (ICAM-1 assays) SDF-1α to induce chemotaxis. Jurkat cells were mixed with vehicle (1% DMSO) or C4 at the indicated concentrations immediately prior to being added to the upper chamber. After a 4-hour incubation at 37° C., 5% CO2, the upper chambers were removed, and cells in the lower chamber were collected and counted on a hemocytometer. Results are expressed as the total number of cells migrated.

A further assay concerns K562 tumor target cells. The assay is described as follows: NK cytotoxicity testing (NK cell cytolysis of tumor target cells). In kind it is cell-based, human. Here is the method:
FIG. 1 depicts C4 enhancement of natural killer cell cytolysis of tumor target cells. Freshly isolated CD56+ natural killer cells were isolated from the peripheral blood of a healthy volunteer. Cells were either incubated with vehicle control (DMSO), or indicated concentrations of C4 for 4 h in the presence of tumor target cells (the erythroleukemic cell line K562). Data is presented as a percent increase in tumor cell killing.
FIG. 2 depicts the natural killer cell line NK-92, which was used at different effector to target ratios in the presence or absence of C4 (100 μM). Specific lysis of K562 cells is shown. All data are from triplicate determinations, and graphed as the mean+SD. […]
Human NK cells were purified from leukoreduction filters obtained from healthy volunteers using a CD56+ magnetic bead based enrichment column from Multenyi Biotech (as per manufacturer's instructions). Purified cells were routinely >90% CD56+ positive as measured by flow cytometry. […] After a 4 h incubation at 37° C., 5% CO2, culture supernatants were removed and liberated TDA (2,2′:6′,2″-terpyridine-6,6″-dicarboxylic acid) was detected by addition of DELFIA solution to form EuTDA, and fluorescence was measured on a Tecan Safire 2 multimodal plate reader. […] Results are expressed as the percent specific lysis, calculated as [(experimental signal−spontaneous release)/(total signal−spontaneous release).

The subject of another assay is B16-BL6 melanoma. The assay is described as follows: Checkpoint blockade B16-BL6 melanoma model. It counts as in vivo, C57BL/6 mice. Particulars: C4 intratumorally 1 mg/kg twice weekly for 30 days from day 11. The method, then:
C4 was tested in a B16-BL6 melanoma model to determine potential effects on the current checkpoint blockade therapy anti-CTLA-4. Briefly, thirty C57BL/6 were randomized into 3 groups (n=10). C4 was added to a regimen of GVAX®/anti-CTLA-4. Historically, these treatment regimens result in at best, a 20% tumor free survival. On day 0, B16-BL6 cells (2.5×10^4) were injected subcutaneously. GVAX®/anti-CTLA-4 (clone 9H10), or IgG controls, were administered on days 3, 6, and 9. On day 11, C4 treatment was initiated intratumorally twice weekly (1 mg/kg) for 30 days. Vehicle control was added to the IgG group.
The B16-BL6 therapeutic melanoma model is well described. Briefly, B16-BL6 cells (>90% viability) were be resuspended at 2.5×10^5 cells/ml in HBSS (4° C.). At day 0 (d0), C57BL/6 mice (4-6 wk old, female) were inoculated (subcutaneous, flank) with 2.5×10^4 cells (100 μL). At d3, appropriate groups received B16-GM-CSF vaccine (GVAX®). GVAX® preparation followed established procedures. Log-phase growth B16-GM-CSF cells were harvested as described above for B16-BL6 cells, but resuspended at 1×10^7 cells in HBSS (4° C.). Cells were irradiated (5000 rad) and injected into contralateral flanks (100 μL, […]). Also at d3, all animals received anti-CTLA-4 (mAb 9H10, BioXcell, 200 μg/animal, twice weekly). […] Animals were monitored daily for distress and survival was assessed twice daily. […]

The next assay has as its system Jurkat (a4-) cells. The assay is described as follows: SDF-1α mediated migration assay across ICAM-1 coated membranes. It counts as cell-based. The note with it: 4-hour incubation, *p<0.05 (FIG. 3A&B). The method, then:
as §3, §4

T2 sequence (P13612 34-1032): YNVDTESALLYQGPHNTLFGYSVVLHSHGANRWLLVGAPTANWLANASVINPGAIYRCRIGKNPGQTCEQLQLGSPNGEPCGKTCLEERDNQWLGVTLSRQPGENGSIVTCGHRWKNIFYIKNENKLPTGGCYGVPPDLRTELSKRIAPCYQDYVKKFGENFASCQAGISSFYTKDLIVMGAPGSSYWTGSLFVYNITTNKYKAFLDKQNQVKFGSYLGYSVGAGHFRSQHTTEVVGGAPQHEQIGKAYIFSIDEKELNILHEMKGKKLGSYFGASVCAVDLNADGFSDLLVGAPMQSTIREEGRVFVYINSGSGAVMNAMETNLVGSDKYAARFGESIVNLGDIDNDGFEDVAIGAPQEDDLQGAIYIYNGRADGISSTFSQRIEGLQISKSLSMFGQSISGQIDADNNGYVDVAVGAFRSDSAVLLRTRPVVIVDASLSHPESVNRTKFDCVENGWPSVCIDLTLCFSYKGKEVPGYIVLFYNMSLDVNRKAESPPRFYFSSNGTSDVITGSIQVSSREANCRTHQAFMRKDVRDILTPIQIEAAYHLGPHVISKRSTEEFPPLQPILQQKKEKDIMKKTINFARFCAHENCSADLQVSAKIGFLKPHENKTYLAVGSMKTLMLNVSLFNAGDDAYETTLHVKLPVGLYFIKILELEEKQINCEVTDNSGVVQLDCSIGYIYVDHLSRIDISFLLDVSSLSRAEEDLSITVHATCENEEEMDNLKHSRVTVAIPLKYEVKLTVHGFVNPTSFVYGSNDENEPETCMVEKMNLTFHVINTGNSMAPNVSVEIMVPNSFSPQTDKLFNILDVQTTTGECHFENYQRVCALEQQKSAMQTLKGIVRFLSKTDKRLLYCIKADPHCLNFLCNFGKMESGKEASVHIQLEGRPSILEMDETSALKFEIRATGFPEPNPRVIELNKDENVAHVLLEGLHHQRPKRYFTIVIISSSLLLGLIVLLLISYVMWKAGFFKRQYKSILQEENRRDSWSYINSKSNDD
T2 sequence (P05556 21-798): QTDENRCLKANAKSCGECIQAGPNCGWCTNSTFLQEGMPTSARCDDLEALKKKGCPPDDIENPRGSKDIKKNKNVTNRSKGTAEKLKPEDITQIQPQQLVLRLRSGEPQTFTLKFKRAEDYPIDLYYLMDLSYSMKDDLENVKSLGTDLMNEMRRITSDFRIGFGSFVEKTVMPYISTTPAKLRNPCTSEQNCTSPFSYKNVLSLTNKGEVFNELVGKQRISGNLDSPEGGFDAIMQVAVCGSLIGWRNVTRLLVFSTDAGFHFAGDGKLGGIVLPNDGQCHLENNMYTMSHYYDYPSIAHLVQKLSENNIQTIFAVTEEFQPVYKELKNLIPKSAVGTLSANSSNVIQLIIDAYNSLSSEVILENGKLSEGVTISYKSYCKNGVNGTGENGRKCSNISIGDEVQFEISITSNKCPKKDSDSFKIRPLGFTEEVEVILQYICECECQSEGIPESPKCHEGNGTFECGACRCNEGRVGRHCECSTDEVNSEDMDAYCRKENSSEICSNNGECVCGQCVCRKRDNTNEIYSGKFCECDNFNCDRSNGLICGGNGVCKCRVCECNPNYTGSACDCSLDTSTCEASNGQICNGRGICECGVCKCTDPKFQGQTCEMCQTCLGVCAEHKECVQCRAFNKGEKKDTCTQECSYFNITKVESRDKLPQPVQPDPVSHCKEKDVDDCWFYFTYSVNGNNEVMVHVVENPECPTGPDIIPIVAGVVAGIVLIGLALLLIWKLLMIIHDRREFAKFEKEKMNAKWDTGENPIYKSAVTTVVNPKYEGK
T1 sequence (P20701 26-1170): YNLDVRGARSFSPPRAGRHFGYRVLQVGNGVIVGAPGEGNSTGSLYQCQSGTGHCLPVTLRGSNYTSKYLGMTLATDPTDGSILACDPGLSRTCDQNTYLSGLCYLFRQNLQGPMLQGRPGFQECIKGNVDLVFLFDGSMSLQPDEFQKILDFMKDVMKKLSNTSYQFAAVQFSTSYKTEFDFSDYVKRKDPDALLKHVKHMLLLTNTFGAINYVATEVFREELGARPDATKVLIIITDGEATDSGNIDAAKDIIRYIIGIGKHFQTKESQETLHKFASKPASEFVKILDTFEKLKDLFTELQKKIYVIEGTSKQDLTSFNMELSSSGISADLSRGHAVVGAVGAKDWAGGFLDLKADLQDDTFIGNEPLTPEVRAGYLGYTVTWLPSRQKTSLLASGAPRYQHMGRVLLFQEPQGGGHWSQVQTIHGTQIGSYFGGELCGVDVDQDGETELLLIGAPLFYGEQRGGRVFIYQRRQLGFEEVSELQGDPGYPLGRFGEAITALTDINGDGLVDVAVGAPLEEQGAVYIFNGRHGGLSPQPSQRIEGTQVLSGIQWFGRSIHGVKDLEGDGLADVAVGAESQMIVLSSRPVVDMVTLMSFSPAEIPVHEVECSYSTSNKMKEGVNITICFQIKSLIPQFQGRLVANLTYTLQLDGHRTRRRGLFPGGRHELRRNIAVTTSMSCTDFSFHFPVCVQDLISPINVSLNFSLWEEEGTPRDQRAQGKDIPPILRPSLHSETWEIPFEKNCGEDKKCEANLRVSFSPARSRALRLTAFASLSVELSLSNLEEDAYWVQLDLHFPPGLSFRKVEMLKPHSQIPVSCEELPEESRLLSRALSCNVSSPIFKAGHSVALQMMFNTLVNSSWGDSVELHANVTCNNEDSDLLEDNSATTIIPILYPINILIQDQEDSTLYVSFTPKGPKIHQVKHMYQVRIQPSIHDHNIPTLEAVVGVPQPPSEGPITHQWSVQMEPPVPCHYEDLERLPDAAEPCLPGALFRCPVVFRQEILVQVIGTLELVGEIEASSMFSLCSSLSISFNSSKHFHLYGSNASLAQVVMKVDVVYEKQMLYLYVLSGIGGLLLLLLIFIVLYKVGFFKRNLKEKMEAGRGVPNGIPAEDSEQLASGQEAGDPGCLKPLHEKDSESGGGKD
T1 sequence (P05107 23-769): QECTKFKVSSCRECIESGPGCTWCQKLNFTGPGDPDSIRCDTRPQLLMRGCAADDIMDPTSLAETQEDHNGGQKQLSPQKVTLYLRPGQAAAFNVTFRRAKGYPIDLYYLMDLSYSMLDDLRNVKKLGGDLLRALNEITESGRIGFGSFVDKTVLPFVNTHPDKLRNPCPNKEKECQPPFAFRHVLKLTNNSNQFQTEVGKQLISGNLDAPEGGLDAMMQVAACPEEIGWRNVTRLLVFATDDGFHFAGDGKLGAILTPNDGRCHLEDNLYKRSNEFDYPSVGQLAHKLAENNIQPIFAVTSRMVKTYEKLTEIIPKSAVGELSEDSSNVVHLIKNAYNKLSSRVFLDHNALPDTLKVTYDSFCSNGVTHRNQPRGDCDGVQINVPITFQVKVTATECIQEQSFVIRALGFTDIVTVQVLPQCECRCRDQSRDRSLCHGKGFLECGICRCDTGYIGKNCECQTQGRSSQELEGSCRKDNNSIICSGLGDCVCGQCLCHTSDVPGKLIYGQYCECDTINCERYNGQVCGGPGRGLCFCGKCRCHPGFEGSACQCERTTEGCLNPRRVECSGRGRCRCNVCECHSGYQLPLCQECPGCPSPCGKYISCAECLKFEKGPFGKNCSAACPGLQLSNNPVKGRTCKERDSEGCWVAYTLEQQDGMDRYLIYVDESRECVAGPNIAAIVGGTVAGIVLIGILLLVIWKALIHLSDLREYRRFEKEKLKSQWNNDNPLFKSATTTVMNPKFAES

On to `COc1ccc(CN(Cc2ccc(OC)cc2)C(=O)CCCCC(=O)N(Cc2ccc(OC)cc2)Cc2ccc(OC)cc2)cc1` [Compound C2, N^1,N^1,N^6,N^6-tetrakis(4-methoxybenzyl)adipamide], for which the EC50 on αLβ2 (LFA-1) and on α4β1 (VLA-4) was 11 µM throughout.
As to `CCCC[C@@H](COC(=O)N(Cc1cccs1)Cc1cccs1)NC(=O)N[C@@H](CC(=O)OC)c1ccc2c(c1)OCO2` [Compound C1, (6S,10S)-methyl 10-(1,3-benzodioxol-5-yl)-6-butyl-3,8-dioxo-1-(2-thienyl)-2-(2-thienylmethyl)-4-oxa-2,7,9-triazadodecan-12-oate], the figures for the EC50 at αLβ2 (LFA-1) and at α4β1 (VLA-4) were 26 µM and 32 µM, respectively.
Regarding `O=C(OCCOCCOCCOC(=O)N(Cc1cccs1)Cc1cccs1)N(Cc1cccs1)Cc1cccs1` [Compound C4, (ethane-1,2-diylbis(oxy))bis(ethane-2,1-diyl) bis(bis(thiophen-2-ylmethyl)carbamate)], the “SDF-1α mediated migration of Jurkat T cells across VCAM-1 coated membranes” value in the assay with Jurkat cells was “enhancing”. Besides, the “Killing (specific lysis) of K562 tumor target cells by NK-92 cell line” value with K562 tumor target cells (different effector to target ratios, C4 100 μM (FIG. 2)) is “enhanced”. Besides, the “Killing of K562 tumor target cells by freshly isolated CD56+ NK cells” value in the assay on K562 tumor target cells (human NK cells from healthy volunteer, 4 h, with or without C4 (FIG. 1)) is recorded as “enhanced”. For the same molecule, on αLβ2 (LFA-1), the EC50 amounted to 11 µM. Further, in the assay with B16-BL6 melanoma, the “Long term tumor free survival on addition to GVAX/anti-CTLA-4 (in words)” value is on record as “significant increase” and the “Median survival benefit on addition to GVAX/anti-CTLA-4 (in words)” value is listed as “significant median survival benefit”. Moreover, the EC50 on α4β1 (VLA-4) stood at 14 µM. The “SDF-1α mediated migration of Jurkat T cells across ICAM-1 coated membranes” value with Jurkat (a4-) cells is recorded as “enhancing”.
As for `COc1cccc(CN(Cc2cccc(OC)c2)C(=O)CCCCC(=O)N(Cc2cccc(OC)c2)Cc2cccc(OC)c2)c1` [Compound C3, N^1,N^1,N^6,N^6-tetrakis(3-methoxybenzyl)adipamide], the half-maximal effective concentration (EC50) at αLβ2 (LFA-1) amounted to 7 µM; at α4β1 (VLA-4) it was 11 µM.

A word on the EC50: it is the midpoint of the concentration-response curve.

The record behind these values is US10342866B2, “Compositions and methods for immunotherapies comprising small molecule integrin receptor-ligand agonist adjuvants” (7 Hills Interests LLC, priority 2015, dated 2019).
